Earlier results as cited in patent US12071673B2, “Methods of diagnosis, selection, and treatment of diseases and conditions caused by or associated with methanogens” (Cedars-Sinai Medical Center, priority 2013, dated 2024).

Columns and labels:
methanogens = details: retrospective study, 10 days; for reduction in methane: breath methane

| Compound | reduction of proximal small bowel motility (average) (5 dogs, methane infused through mid-small bowel fistula) | slowing of small intestinal transit (in vivo animal study, methane infused into the small intestine) | reduction in constipation symptoms (methanogens) | reduction in methane (methanogens) |
| --- | --- | --- | --- | --- |
| C [methane] | 59% | 59% |  |  |
| CO[C@H]1/C=C/O[C@@]2(C)Oc3c(C)c(O)c4c(O)c(c5c(nc6cc(C)ccn65)c4c3C2=O)NC(=O)/C(C)=C\C=C\[C@H](C)[C@H](O)[C@@H](C)[C@@H](O)[C@@H](C)[C@H](OC(C)=O)[C@@H]1C [rifaximin] |  |  | 56% | 28% |
| neomycin |  |  | 63% | 33% |
